A word on the Kd: it is the equilibrium constant for the complex coming apart. Read a low Kd as higher affinity.

The experiment deals with T1, human tryptase beta-2 (hTPSB2) (Homo sapiens, UniProt P20231).
T1 construct: gene TPSB2
Kind of experiment: biochemical.

T1 sequence (P20231 31-275): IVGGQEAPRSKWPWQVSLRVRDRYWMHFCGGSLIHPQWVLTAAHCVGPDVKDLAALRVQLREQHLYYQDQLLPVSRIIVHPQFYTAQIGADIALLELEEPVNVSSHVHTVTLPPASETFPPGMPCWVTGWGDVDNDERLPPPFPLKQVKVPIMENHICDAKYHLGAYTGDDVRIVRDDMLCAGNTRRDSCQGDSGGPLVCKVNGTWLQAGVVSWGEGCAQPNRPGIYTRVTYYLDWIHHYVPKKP

Regarding `C[Si](C)(O[Si](C)(C)c1coc2ccc(C(=O)N3CCC(c4cccc(CN)c4)CC3)cc12)c1coc2ccc(C(=O)N3CCC(c4cccc(CN)c4)CC3)cc12` [#2d, compound #2d], the Kd came out at 2.1 nM.
As to `C[Si](C)(O)c1coc2ccc(C(=O)N3CCC(c4cccc(CN)c4)CC3)cc12` [#2m, compound #2m], binding was characterised by a dissociation constant (Kd) of 81 nM.

The record behind these values is paper PMC11944677, “Integrating Surface Plasmon Resonance and Docking Analysis for Mechanistic Insights of Tryptase Inhibitors” (Molecules, 2025).
